# Measurements as given in patent US20050170392A1, “OAT3 transporters expressed in blood brain barrier cells” (priority 2004, published 2005).
# Experiments:
# OAT3 = molecular target: T1, OAT3 (Homo sapiens, UniProt Q8TCC7); conditions: cited from earlier work
# T1 sequence (Q8TCC7 1-542): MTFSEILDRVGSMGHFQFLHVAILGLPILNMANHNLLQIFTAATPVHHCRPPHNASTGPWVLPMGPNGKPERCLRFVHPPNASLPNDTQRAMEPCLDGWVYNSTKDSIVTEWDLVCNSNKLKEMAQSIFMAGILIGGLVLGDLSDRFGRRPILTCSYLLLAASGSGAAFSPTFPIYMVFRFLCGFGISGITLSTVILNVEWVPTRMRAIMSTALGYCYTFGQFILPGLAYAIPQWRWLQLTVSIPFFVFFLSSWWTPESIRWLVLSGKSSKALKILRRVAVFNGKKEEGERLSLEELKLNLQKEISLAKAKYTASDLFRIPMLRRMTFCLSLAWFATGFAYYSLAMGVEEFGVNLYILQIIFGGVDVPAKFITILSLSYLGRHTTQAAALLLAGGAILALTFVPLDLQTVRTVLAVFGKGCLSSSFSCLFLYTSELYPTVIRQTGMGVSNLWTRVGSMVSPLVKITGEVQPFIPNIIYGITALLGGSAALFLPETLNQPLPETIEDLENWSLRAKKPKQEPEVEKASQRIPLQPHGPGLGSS
# PgP = molecular target: T2, PgP (Homo sapiens, UniProt P08183); test: Cellular transwell monolayer efflux assay, MDCK cells transfected with TREx-PgP; type: in vitro ADME
# T2 construct: expressed in transfected cells; host or cells: MDCK cells
# T2 sequence (P08183 whole entry): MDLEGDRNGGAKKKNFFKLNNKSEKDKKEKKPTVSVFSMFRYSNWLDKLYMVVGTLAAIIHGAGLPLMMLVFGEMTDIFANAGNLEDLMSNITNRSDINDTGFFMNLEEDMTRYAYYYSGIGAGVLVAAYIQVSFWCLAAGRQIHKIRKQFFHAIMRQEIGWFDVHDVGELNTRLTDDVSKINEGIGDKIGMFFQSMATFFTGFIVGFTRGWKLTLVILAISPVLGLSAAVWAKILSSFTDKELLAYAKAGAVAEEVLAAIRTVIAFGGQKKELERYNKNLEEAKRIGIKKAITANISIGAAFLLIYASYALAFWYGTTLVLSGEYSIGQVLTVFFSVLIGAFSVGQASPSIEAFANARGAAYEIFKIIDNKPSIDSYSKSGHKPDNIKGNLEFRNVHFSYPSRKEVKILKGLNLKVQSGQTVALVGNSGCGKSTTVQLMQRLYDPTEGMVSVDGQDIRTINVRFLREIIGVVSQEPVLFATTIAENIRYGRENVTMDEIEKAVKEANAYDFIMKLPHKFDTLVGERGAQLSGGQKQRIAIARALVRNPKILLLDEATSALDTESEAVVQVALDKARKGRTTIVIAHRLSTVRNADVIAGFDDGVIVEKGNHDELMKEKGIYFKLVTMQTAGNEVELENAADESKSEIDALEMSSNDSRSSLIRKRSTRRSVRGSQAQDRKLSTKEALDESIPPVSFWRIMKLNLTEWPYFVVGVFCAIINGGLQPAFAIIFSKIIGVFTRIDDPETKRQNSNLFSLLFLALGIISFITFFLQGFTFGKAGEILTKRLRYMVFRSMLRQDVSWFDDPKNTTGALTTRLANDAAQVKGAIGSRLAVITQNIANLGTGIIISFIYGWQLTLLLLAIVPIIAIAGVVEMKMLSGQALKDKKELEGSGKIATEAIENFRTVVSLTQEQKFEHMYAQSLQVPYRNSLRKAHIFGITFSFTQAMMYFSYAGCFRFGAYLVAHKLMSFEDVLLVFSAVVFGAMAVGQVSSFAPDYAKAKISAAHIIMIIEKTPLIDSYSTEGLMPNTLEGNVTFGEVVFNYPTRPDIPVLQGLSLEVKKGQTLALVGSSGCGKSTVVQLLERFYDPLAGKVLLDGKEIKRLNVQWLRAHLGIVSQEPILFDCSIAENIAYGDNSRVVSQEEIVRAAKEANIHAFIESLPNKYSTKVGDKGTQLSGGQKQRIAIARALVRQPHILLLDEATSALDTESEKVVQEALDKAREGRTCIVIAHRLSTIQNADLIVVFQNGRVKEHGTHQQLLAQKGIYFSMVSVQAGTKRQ
# Description: A third type of efflux transporter assay is the cellular transwell monolayer efflux assay. […] The cells form a polarized monolayer. The transwell dishes have apical and basolateral chambers that are separated by the filter membrane on which the polarized monolayer is situated. Assays are performed by placing a test compound in either the apical or basolateral chamber, followed by sampling the opposite chamber after a predetermined period of time such as 60-120 minutes and measuring the amount of the test compound. The test compound can be measured by methods such as radiolabel detection or LC-MS-MS analysis. Assays are performed in the presence and absence of an efflux transporter inhibitor or competitor. Efflux transporter inhibitors or competitors increase apical to basolateral transport and decrease basolateral to apical transport of compounds that are efflux transporter substrates. Apparent permeability (Papp) of test compounds is measured. […] Test compounds that generate ratios between 1.5 and 2.0 require additional testing to determine if they are efflux transporter substrates.
# MDCK cells transfected with the tetracycline-inducible TREx-PgP expression vector were seeded on polycarbonate filter membranes in transwell dishes and grown for 3-5 days, yielding a polarized monolayer with tight junctions between cells. […] The left set of bars depicts apical to basolateral transport, while the right set of bars depicts basolateral to apical transport.
# [1] = 2.5 nM 3H-vinblastine, in the presence of 250 μM verapamil versus absence, FIG. 6
Structure (SMILES),Reported Affinity for OAT3 (OAT3) [mM],apical to basolateral transport (PgP; [1]),basolateral to apical transport (PgP; [1]),efflux transporter substrate status (PgP; conclusion from transwell transport with and without verapamil)
CC1(C)S[C@@H]2[C@H](NC(=O)Cc3ccccc3)C(=O)N2[C@H]1C(=O)O [Benzylpennicillin],0.3,,,
C[C@]12CC[C@@H]3c4ccc(OS(=O)(=O)O)cc4CC[C@H]3[C@@H]1CCC2=O [Estrone-3-sulphate],0.04,,,
C[C@@H]1Cc2c(Cl)cc(C(=O)N[C@@H](Cc3ccccc3)C(=O)O)c(O)c2C(=O)O1 [Ochratoxin A],0.05,,,
CCCN(CCC)S(=O)(=O)c1ccc(C(=O)O)cc1 [Probenecid],0.05,,,
"CC[C@]1(O)C[C@@H]2CN(CCc3c([nH]c4ccccc34)[C@@](C(=O)OC)(c3cc4c(cc3OC)N(C)[C@H]3[C@@](O)(C(=O)OC)[C@H](OC(C)=O)[C@]5(CC)C=CCN6CC[C@]43[C@@H]65)C2)C1 [^3H-vinblastine, vinblastine]",,strongly increased,strongly decreased,substrate of PgP
